Results published in patent US10920265B2, “Compounds and methods for detection of enzymes that remove methyl succinyl groups from epsilon-amino lysine moieties” (Enzo Life Sciences, Inc., priority 2011, dated 2021).
*: point of attachment. AMC = Cc1cc(=O)oc2cc(N*)ccc12

Target: T1, SIRT1 (Homo sapiens, UniProt Q96EB6)
T1 construct: purchased ENZO Life Sciences BML-SE239
T1 sequence (Q96EB6 1-747): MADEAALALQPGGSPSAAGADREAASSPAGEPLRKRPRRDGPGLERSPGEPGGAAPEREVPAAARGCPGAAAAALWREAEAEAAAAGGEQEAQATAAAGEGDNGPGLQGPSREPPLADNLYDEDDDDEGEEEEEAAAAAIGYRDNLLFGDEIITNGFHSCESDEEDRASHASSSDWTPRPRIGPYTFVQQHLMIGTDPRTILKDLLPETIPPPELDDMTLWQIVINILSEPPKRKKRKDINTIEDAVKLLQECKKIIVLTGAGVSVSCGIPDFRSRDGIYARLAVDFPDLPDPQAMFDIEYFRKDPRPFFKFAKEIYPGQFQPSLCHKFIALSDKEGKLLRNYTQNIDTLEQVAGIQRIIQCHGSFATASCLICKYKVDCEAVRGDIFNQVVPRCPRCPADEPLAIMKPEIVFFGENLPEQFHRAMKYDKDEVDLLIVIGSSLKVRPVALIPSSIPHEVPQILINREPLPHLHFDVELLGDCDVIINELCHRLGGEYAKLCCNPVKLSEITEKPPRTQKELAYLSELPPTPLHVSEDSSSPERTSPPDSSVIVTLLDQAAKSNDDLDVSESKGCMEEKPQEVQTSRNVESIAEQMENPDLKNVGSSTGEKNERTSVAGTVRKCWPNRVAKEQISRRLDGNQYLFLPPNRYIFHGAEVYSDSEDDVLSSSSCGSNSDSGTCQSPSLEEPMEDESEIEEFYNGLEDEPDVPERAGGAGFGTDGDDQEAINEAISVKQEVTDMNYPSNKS
Test: Sirtuin activity with fluorogenic lysyl substrates
Assay type: biochemical
Conditions: 50 μM substrate, 500 μM NAD^+
Procedure: The Ac-Lys(Succ.)-AMC substrate was tested for activity with recombinant preparations of human HDACs 1-11, SIRTs 1-4, 6 and 7, a complex of HDAC3 with a fragment of the activating protein NCOR1 and with HeLa nuclear extract, a rich source of active HDACs in their native multiprotein complexes.
Enzyme and extract catalog products obtained from ENZO Life Sciences included: HDAC1 (Cat. # BML-SE456), HDAC2 (Cat. # BML-SE500), HDAC3 (Cat. # BML-SE507), HDAC3/NCOR1 Complex (Cat. # BML-SE515), HDAC6 (Cat. # BML-SE508), HDAC8 (Cat. # BML-SE145), HDAC10 (Cat. # BML-SE559), HDAC11 (Cat. # BML-SE560), SIRT1 (Cat. # BML-SE239), SIRT2 (Cat. # BML-SE251), SIRT3 (Cat. # BML-SE270), SIRT5 (Cat. # BML-SE555), HeLa Nuclear Extract (Cat. # BML-KI140), Trypsin (“Fluor de Lys Developer”, 80 mg/ml bovine trypsin in 1 mM HCl, Cat. # BML-KI105 or “Fluor de Lys Developer II”, 80 mg/ml bovine trypsin in 1 mM HCl, Cat. # BML-KI176). […] Enzymes obtained from BPS Bioscience, San Diego, Calif. included: human recombinants SIRT4 (Cat. #50015), SIRT6 (Cat. #50017), SIRT7 (Cat. #50018). HeLa whole cell extract was obtained from HeLa S3 cells (American Type Culture Collection) grown in a medium of MEM/10% fetal bovine serum (FBS) as follows: 1) 9×10^6 cells were suspended by trypsinization, followed by a phosphate buffered saline (PBS) rinse and addition of MEM/10% FBS (1.5 mL) to eliminate trypsin before transfer to a 15 mL conical tube; 2) cells were sedimented by a low speed centrifugation, gently resuspended in PBS and sedimented again and supernatant removed; 3) lysis was induced by resuspension in 0.8 mL 50 mM Tris/HCl, pH 8.0 with the non-denaturing detergent NP-40 (0.5%), placement on ice and brief vortexing every 5 min. for 30 min.; 4) 100 μl of a concentrated salt solution in the same buffer was added in order to bring the final buffer composition to 50 mM Tris/C1, pH 8.0, 137 mM NaCl, 2.7 mM KCl, 1 mM MgCl2, 0.5% NP-40; 5) particulate matter was cleared by centrifugation and the cleared lysate supernatant transferred to a 1.5 mL Eppendorf tube and stored on ice until use in activity assays.
Assays were performed at 37° C., according to the manufacturer's instructions for the “SIRT1 Fluorometric Drug Discovery Kit” from Enzo Life Sciences (ELS) (Cat. # BML-AK555), with exceptions described as follows. Where indicated in figures and text, SIRT1 enzyme was replaced with another enzyme or extract and the “Fluor de Lys-SIRT1 Substrate” (Ac-Arg-His-Lys-Lys(Ac)-AMC; ELS Cat. # BML-KI-177) was replaced with another acetylated, succinylated or trifluoroacetylated substrate.

Activity [pmol/min/µg]	Activity (pmol/min/μg)	Compound
0.043	–	CCCCCCCCCCCCCC(=O)NCCCC[C@H](NC(C)=O)C(=O)Nc1ccc2c(C)cc(=O)oc2c1 [Compound 4, N—(N^α-acetyl-L-Lysine(N^ε-myristoyl))-AMC]
0.391	–	CC(=O)NCCCCC(NC(C)=O)C(=O)Nc1ccc2c(C)cc(=O)oc2c1 (centres unmarked) [Ac-Lys(Ac.)-AMC, Ac-Lys(ε-acetyl)-AMC, reference compound]
–	Ac-RHKK(Ac)-AMC/64 pmol/min/μg	Ac-Arg-His-Lys-Lys(ε-acetyl)-AMC (Ac-RHKK(Ac)-{AMC}; SMILES CC(=O)NCCCC[C@H](NC(=O)[C@H](CCCCN)NC(=O)[C@H](Cc1c[nH]cn1)NC(=O)[C@H](CCCNC(=N)N)NC(C)=O)C(=O)Nc1ccc2c(C)cc(=O)oc2c1) [Ac-RHKK(Ac)-AMC, p53 peptide fluorogenic deacetylase substrate, Cat. # BML-KI177, reference compound]
–	Undetectable	CC(=O)N[C@@H](CCCCNC(=O)CCC(=O)O)C(=O)Nc1ccc2c(C)cc(=O)oc2c1 [Compound 1, N—(N^α-acetyl-L-Lysine(N^ε-succinyl))-AMC]
0.002	–	COC(=O)CCC(=O)NCCCC[C@H](NC(C)=O)C(=O)Nc1ccc2c(C)cc(=O)oc2c1 [Compound 5, N—(N^α-acetyl-L-Lysine(N^ε-methyl succinyl))-AMC]
